Measurements: paper PMC7611821 (ACS synthetic biology, 2020)

Target: Ec-F1F0 (E. coli ATP synthase) (Escherichia coli, UniProt P0ABB0+P0ABB4)
Test: NADH-driven ATP synthesis in proteoliposomes, luciferase luminescence
Type: biochemical
Details: turnover only; 50 μM ADP, 20 mM Tris-PO4 pH 7.4, 5 mM MgCl2, 200 μM NADH, 20 °C

Ec-F1F0 (E. coli ATP synthase), sequence (P0ABB0 whole entry, looked up): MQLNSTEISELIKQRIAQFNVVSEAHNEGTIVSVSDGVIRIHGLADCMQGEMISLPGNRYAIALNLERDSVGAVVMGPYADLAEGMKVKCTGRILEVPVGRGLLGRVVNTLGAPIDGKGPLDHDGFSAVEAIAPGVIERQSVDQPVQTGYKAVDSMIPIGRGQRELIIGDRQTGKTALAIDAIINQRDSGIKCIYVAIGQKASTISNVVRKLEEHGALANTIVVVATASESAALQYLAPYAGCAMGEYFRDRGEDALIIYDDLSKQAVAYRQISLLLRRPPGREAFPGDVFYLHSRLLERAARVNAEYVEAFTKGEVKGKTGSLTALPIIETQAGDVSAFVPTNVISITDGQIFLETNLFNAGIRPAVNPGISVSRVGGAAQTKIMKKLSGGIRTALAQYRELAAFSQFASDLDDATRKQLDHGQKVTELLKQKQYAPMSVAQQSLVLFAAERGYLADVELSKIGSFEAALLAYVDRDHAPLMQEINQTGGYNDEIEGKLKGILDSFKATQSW
Ec-F1F0 (E. coli ATP synthase), sequence (P0ABB4 whole entry, looked up): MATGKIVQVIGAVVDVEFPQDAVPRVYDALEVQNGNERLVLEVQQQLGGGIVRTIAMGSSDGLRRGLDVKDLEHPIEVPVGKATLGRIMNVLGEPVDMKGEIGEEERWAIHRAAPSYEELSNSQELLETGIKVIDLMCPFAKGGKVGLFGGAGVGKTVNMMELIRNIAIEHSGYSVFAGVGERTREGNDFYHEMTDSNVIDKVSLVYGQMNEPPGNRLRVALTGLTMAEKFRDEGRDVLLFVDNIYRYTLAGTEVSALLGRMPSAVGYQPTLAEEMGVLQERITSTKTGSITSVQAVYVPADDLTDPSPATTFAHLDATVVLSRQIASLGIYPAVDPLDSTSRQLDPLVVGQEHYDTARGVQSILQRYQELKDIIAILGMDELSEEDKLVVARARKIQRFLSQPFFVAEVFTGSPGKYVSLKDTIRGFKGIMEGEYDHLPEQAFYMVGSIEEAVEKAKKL

**Q.** `Nc1ncnc2c1ncn2[C@@H]1O[C@H](COP(=O)(O)OP(=O)(O)O)[C@@H](O)[C@H]1O` [ADP] was tested. Which “NADH-driven ATP synthesis in proteoliposomes, luciferase luminescence” value did it give?
**A.** Its value is “the Δp is used by Ec-F1F0 to generate ATP”.
